Experiments:
[1] = cited from earlier work
[2] = molecular target: cation transport ATPase in liver mitochondria; assay: In vitro inhibition of cation transport ATPase in liver mitochondria; format: biochemical
Excerpt: In yet another aspect, the compounds of this invention are active as inhibitors of the enzyme ATPase. ATPase, an alkali-metal-sensitive enzyme found in cell membranes, is involved in the energy necessary for active transport. "Active transport" refers to the energy-requiring series of operations whereby intracellular and extracellular fluids maintain their compositions. Inhibitors of ATPase reduce the energy required for active transport. Table III summarizes the results of in vitro tests measuring inhibition of cation transport ATPase in liver mitochondria [measured as half effective concentration (Ic50) in mcg/ml].

[3] = system: Staphylococcus aureus (H-Heatley strain, NRRL B-314); assay: Bioassay for antibacterial activity; format: cell-based
Excerpt: The compounds of this invention are useful antibacterial agents. In this aspect, these compounds may be used in the same manner in which the parent antibiotic is used, as described in U.S. Pat. No. 3,923,823. A bioassay for the antibacterial activity of A-23187 has been described by J. E. Westhead in Antimicrobial Agents and Chemotherapy 11 (5), 916-918 (1977). The test organism for this bioassay is Staphylococcus aureus (H-Heatley strain, NRRL B-314).

[4] = Acute toxicity in mice, intraperitoneal; conditions: mouse, in vivo, ip
Description: The compounds of the present invention are, in general, less toxic than the parent antibiotic. Table II summarizes the acute toxicities of representative compounds in mice, expressed as LD50, when the compounds are administered intraperitoneally.

[5] = Pfeiffer and Lardy, Biochemistry 15, 935 (1976)

Row | SMILES | discrimination for divalent over monovalent cations [1, 5] | transport of Mg^2+ versus Ca^2+ [1, 5] | selectivity for transport of divalent over monovalent cations ([1]; background, among approximately 100 known ionophores) | half effective concentration (Ic50), ATPase induced by CaCl2 [2] | half effective concentration (Ic50), ATPase induced by K^+ monazomycin [2] | Bioassay [3] | LD50 [4]
1 | CNc1ccc2oc(CC3OC4(CCC3C)OC(C(C)C(=O)c3ccc[nH]3)C(C)CC4C)nc2c1C(=O)O (centres unmarked) [A-23187 (free acid), reference compound] | not complete | transports Mg^2+ with a similar efficiency to Ca^2+ | substantially selective for the transport of divalent over monovalent cations | 0.5 µg/mL | 0.5 µg/mL | 1060 µg/mL | 
2 | CNc1ccc2oc(CC3OC4(CCC3C)OC(C(C)C(=O)c3cc(Br)c(Br)[nH]3)C(C)CC4C)nc2c1C(=O)O (stereo not drawn) [23,24-dibromo-A-23187 (free acid), 5-(methylamino)-2-[[3β,9α,11β-trimethyl-8-[1α-methyl-2-oxo-2-(4,5-dibromo-1H-pyrrol-2-yl)ethyl]-1,7-dioxaspiro[5.5]undec-2β-yl]methyl]-4-benzoxazolecarboxylic acid] |  |  |  | 0.8 µg/mL | 0.1 µg/mL | 1105 µg/mL | 79.8 mg/kg
3 | CNc1ccc2oc(CC3OC4(CCC3C)OC(C(C)C(=O)c3cc(Br)c[nH]3)C(C)CC4C)nc2c1C(=O)O (stereo not drawn) [23-bromo-A-23187 (free acid), 5-(methylamino)-2-[[3β,9α,11β-trimethyl-8-[1α-methyl-2-oxo-2-(4-bromo-1H-pyrrol-2-yl)ethyl]-1,7-dioxaspiro[5.5]undec-2β-yl]methyl]-4-benzoxazolecarboxylic acid] |  |  |  | > 10 µg/mL | 0.1 µg/mL | 1766 µg/mL | 23.7 mg/kg

— patent US4227003A, “Bromo-A-23187 derivatives” (Eli Lilly and Company, priority 1978, dated 1980)
